Assay results from patent publication US5639745A, “Fused-bicyclic lactams as interleukin-1β converting enzyme inhibitors” (Sanofi, priority 1995, dated 1997).

What was measured:
ICE (IL-1β protease) = molecular target: T1, ICE (IL-1β protease) (Homo sapiens, UniProt P29466); experiment: modified in vitro enzyme assay, reversible Ki* for ICE (Succinyl-Tyr-Val-Ala-Asp-amino methylcoumarin substrate); type: biochemical; settings: aldehydes
T1 sequence (P29466 120-297 limits assumed): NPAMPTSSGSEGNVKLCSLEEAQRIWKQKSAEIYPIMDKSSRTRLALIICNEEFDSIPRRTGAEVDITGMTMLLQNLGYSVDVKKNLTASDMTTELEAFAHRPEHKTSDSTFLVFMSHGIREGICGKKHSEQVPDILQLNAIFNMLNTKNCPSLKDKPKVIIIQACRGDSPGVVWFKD
T1 sequence (P29466 317-404 limits assumed): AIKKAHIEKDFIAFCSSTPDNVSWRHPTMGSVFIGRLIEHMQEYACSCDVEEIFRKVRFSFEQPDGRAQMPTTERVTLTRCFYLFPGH
Protocol: Second order rates of inactivation were obtained by using the enzyme assay described in Dolle, R. E.; et al., J. Med Chem. (1994), 37, 563. […] In the case of these reversible inhibitors, the in vitro assay was modified to obtain the reversible Ki * as follows:
Ki * values for reversible inhibitors were determined by preincubating ICE with various concentrations of inhibitor in 10 mM HEPES (a common laboratory buffer; pH 7.5), 25% glycerol, 1 mM dithiothreitol for 30 minutes at 37 ° C. in a polystyrene 96-well plate. Remaining ICE activity was measured by adding 10 uM Succinyl-Tyrosine-Valine-Alanine-Aspartic acid-amino methylcoumarin (Bachem Bioscience, Inc.) and monitoring the increase in fluorescence at 37° C. using a Fluoroskan II fluorescence plate reader. The Ki * was calculated from a plat of 1/v versus I as described previously (Morrison, J. F. and Cleland, W. W. (1983) Biochemistry 22, 5507-5513.

[1] = tested on: mature IL-1β release from human monocytes; experiment: human monocyte pulse chase assay, inhibition of release of mature IL-1β (called In Vivo Assay); type: cell-based; settings: human monocytes stimulated with fixed S. aureus
Protocol: In vivo inhibition (IC50) was determined as follows:
Human monocytes were isolated from heparinized leukopheresis units obtained through Biological Specialty Corporation (Lansdale, Pa.). Monocytes were purified by Ficoll-Hupaque (Pharmacia Fine Chemicals, Piscataway, N.J.) gradient centrifugation and more than 95% pure monocyte populations obtained by centrifugal elutriation. The assay was performed on duplicate samples of freshly isolated human monocytes, cultured in suspension at 37° C. and rotated gently in conical bottom polypropylene tubes (Sardstedt Inc., Princeton, N.J.). Human monocytes at a concentration of 5×10^6 cells/mL were resuspended in 1 mL of RPMI 1640 (a common tissue buffer from M. A. Bioproducts, Walkersville, Md.) containing 1% fetal calf serum (FCS) (HyClone, Logan, Utah) and 50 μg/mL gentamycin (Gibco, Grand Island, N.Y.). The cells were treated either with a compound of the invention (i.e. test compound) or with a non-inhibitor (control compound, typically 0.03% DMSO) for 15 minutes and then activated with 0.01% fixed Staphylococcus aureus (The Enzyme Center, Malden, Mass.) for 1 hour. The cells were then centrifuged and resuspended in 1 mL of cysteine, methionine-free RPMI media containing 1% dialyzed FCS (Hyclone). The cells were pretreated with a test compound or control compound for 15 minutes after which 0.01% fixed S. aureus plus 100 μCi Tran 35-S label (ICN, Irvine, Calif.) was added and the cells incubated at 37° C. for 1 hour. After incubation, cells were centrifuged, washed once in phosphate buffer saline and resuspended in 1 mL RPMI containing 1% fetal calf serum. The cells were again pretreated with a test or control compound for 15 minutes and then 0.01% S. aureus for 2 hours. At the end of the incubation, cells were centrifuged and supernates saved for immunoprecipitation. Cells were washed once in phosphate buffer saline and then lysed in RIPA, a continuous cell media buffer containing 2 mM phenylmethylsulfonyl fluoride, 10 mM iodoacetate, 1 μg/mL pepstatin A, 1 μg/mL leupeptin and 0.5 TIU aprotinin.
For the immunoprecipitations, an equal volume of 1% dry milk in RIPA buffer plus 50 μL of resuspended protein A sepharose CL-4B (Pharmacia, Piscataway, N.Y.) was added to supernates and 1 mL of 4% dry milk containing protein A sepharose CL-4B to cell lysates and samples rotated for 30 minutes at 4° C. Beads were then centrifuged down, samples transferred to fresh tubes and incubated overnight with 40 μg rabbit anti-human IL-1β polyclonal antibody (Genzyme, Cambridge, Mass.). The IL-1β proteins were then precipitated with 70 μL protein A sepharose, resuspended in 60 μL SDS sample buffer and run on 15% SGD-PAGE gels. Autoradiography was performed on dried gels and the amount of radioactivity (counts per minute, cpm) quantitated using a Betascope 603 analyzer.
In the monocyte pulse chase assay, each test parameter was run in duplicate. Data was collected from the Beta Scope using a personal computer, then transferred to the VAX system for calculation of mean cpm and standard deviation of the mean. When test compounds were evaluated, the percent inhibition of release of mature IL-1β was calculated as follows:
100×[1-(cells treated with stimuli+test compound-unstimulated cells)/(cells treated with stimuli+control compound-unstimulated cells)]
These % inhibition values were then used to calculate IC50 value for each compound. Since the human monocyte pulse chase assay uses primary cells from different donors, each test compound was run in 2-3 separate experiments, using monocytes from 2-3 different donors.

[2] = tested on: chronic myelogenous leukemia cells; settings: cells removed from chronic myelogenous leukemia patients; cited from earlier work
IL-1 receptor [3] = settings: colitis model; cited from earlier work
IL-1 receptor [4] = settings: PG-APS arthritis, rats; cited from earlier work
IL-1 receptor [5] = settings: open-label human trial, subcutaneous; cited from earlier work
[6] = tested on: acute myelogenous leukemia cells; settings: cited from earlier work

Molecule | mode of inhibition / binding kinetics (ICE (IL-1β protease)) | IC50 [1] [µM] | colony growth inhibition [2] | tissue necrosis and number of inflammatory cells in the colon (IL-1 receptor [3]) | joint swelling (IL-1 receptor [4]) | efficacy in Rheumatoid Arthritis (IL-1 receptor [5]) | blast proliferation inhibition [6]
O=C[C@H](CC(=O)O)NC(=O)[C@@H]1CCCN2C(=O)CC[C@H](NC(=O)c3ccccc3)C(=O)N12 [Example 21] | reversible inhibitors and display slow binding kinetics | < 10 |  |  |  |  | 
O=C[C@H](CC(=O)O)NC(=O)[C@@H]1CCCN2C(=O)CC[C@H](NC(=O)OCc3ccccc3)C(=O)N12 [Example 2] | reversible inhibitors and display slow binding kinetics | < 10 |  |  |  |  | 
IL-1ra: IL-1 receptor antagonist |  |  | inhibit colony growth | reduced tissue necrosis and the number of inflammatory cells in the colon | supresses joint swelling | shows efficacy | Inhibition of Acute Myelogenous Leukemia Blast Proliferation
O=C[C@H](CC(=O)O)NC(=O)[C@@H]1CCCN2C(=O)CC[C@H](NC(=O)c3ccc(OCC(=O)O)cc3)C(=O)N12 [Example 22] | reversible inhibitors and display slow binding kinetics | < 10 |  |  |  |  | 
